Measured values taken from ChEMBL document CHEMBL5036377, “Improved Metabolically Stable 5-HT Receptor Modulators and the Development of New Antidepressants” (ACS Med Chem Lett, 2022).

How the values were obtained:
[1] = Stability in rat brain homogenate assessed as compound remaining measured after 120 mins; format: ADME, tissue-based; conditions: read-out: Stability
[2] = Stability in human liver mitochondria assessed as compound remaining in presence of MAO-A and MAO-B measured after 60 mins; format: ADME; conditions: read-out: Stability
[3] = Stability in rat brain homogenate assessed as half life; format: ADME, tissue-based

Compound	remaining at 2 h [1]	remaining at 1 h [2]	half-life [3]
Oc1cccc2[nH]cc(CCN3CCC3)c12	56.8%	88.2%	2.91 h
CN(C)CCc1c[nH]c2ccccc12	0%	8.9%	0.085 h
COc1ccc2[nH]cc(CCN3CCC3)c2c1	98%	106%	> 4.82 h
COc1ccc2[nH]cc(CCN(C)C)c2c1 [MEBUFOTENIN]	0.3%	47.1%	0.24 h
CN(C)CCc1c[nH]c2cccc(O)c12 [PSILOCIN]	46.1%	112%	1.91 h
c1ccc2c(CCN3CCC3)c[nH]c2c1	91.9%	85.2%	> 4.82 h
